7 compounds from publication PMC12562379, “Facile Synthesis of N-vinylindoles via Knoevenagel Condensation: Molecular Features and Biological Activities” (International Journal of Molecular Sciences, 2025) can be followed below.

≈ marks a conversion by molar mass, not a printed value. Structures can show the parent of a compound that is named as a salt. Where two headings read alike, the source gives them in different places.

One assay has as its system AGS. Kind of assay: MTT assay, cytotoxic activity. It is filed as cell-based, human. Conditions: 24 h, n = 12; for IC50: Homo sapiens. As for the experimental part:
(§1) The human ovarian SKOV-3, gastric adenocarcinoma AGS, cervical HeLa cell lines and non-cancerous keratinocytes HaCaT were obtained from the American Type Culture Collection (ATCC, Manassas, VA, USA). The cell lines were cultured in McCoy’s Medium, Dulbecco’s Modified Eagle’s Medium/F12, and DMEM, respectively (Merck Millipore, Burlington, MA, USA). Penicillin (100 units/mL), streptomycin ([…]), and 10% (v/v) fetal bovine serum (FBS) were added to all the media. The cells were incubated at 37 °C and 5% CO2.
(§2) To estimate the cytotoxic activity of the obtained compounds 2a-i, MTT assay was used. The cells (5 × 10^3 cells/well) were treated with the compounds in a range of concentrations 1–150 µg/mL. […] After 24 h, MTT solution (0.5 mg/mL) was added to the cells. Formazan crystals were dissolved in DMSO and the absorbance was measured with a microtiter plate reader (Epoch, BioTek Instruments, Winooski, VT, USA).
In general terms: Tetrazolium dyes change colour on reduction, which living cells bring about.

In a further assay the test system is SKOV-3. Kind of assay: MTT assay, cytotoxic activity. Conditions: SKOV-3, MTT, 24 h, n = 12; for IC50: Homo sapiens, SK-OV-3. It is filed as cell-based, human. As for the experimental part:
as §1, §2

The test system of another assay is HeLa. Kind of assay: MTT assay, cytotoxic activity. The settings on record: 24 h, n = 12; for IC50: Homo sapiens. It is filed as cell-based, human. As for the experimental part:
as §1, §2

The subject of assay [1] is HeLa, SKOV-3, AGS (and HaCaT) cell lines. Description: MTT assay, ranges stated over several cell lines. The format is cell-based, human. Conditions: range over HeLa and SKOV-3 cell lines. As for the experimental part:
as §1, §2

In the next assay the test system is C. albicans ATCC 10231. Kind of assay: Microbroth dilution assay. The format is cell-based, Candida albicans. The settings on record: Candida albicans, ATCC10231, C. albicans ATCC 10231; for MFC: read-out: MFC; for MIC: read-out: MIC. As for the experimental part:
(§3) The minimum inhibitory concentration (MIC) and minimum bactericidal/fungicidal concentration (MBC/MFC) of the tested compounds were determined by the microbroth dilution technique using 96-well plates based on the methodology described in the EUCAST (European Committee on Antimicrobial Susceptibility Testing) standards. Reference and clinical strains of Gram-positive (Staphylococcus aureus ATCC 6538, Staphylococuccus aureus MRSA 6347) and Gram-negative (Escherichia coli ATCC 8739) bacteria, and yeast (Candida albicans ATCC 10231, Candida glabrata ATCC 2001) were used for the assay. The studies were carried out in the Mueller–Hinton (MH) broth for bacteria and RPMI 1640 broth + MOPS (Sigma-Aldrich, Poland) buffer in the case of yeast. The dry test samples were dissolved in DMSO (dimethyl sulfoxide), resulting in a final concentration of 15 mg/mL, and then diluted in a geometric progression. Ampicillin (Sigma-Aldrich, Poland) acted as a control sample (512 to 4 µg/mL) for bacteria and ketoconazole (128 to 1 µg/mL) (Sigma-Aldrich, Poland) acted as a control sample for yeast. The cultures of microorganisms were prepared by transferring cells from the stock cultures to tubes with the appropriate broth and incubated with agitation in an aerobic atmosphere for 18 ± 2 h at 35 ± 1 °C; next, they were diluted to achieve an optical density corresponding to 5 × 105 (bacteria) or 2 × 105 (yeast) colony-forming units per mL (cfu/mL). An appropriate media (96 µL), along with the tested compounds with a final concentration range of 300–3.1 µg/mL (4 µL) and next microbial suspension (100 µL) were added to each well. Plates with samples were incubated in adequate conditions described above and microbial growth was assessed. […] (>90%; ketoconazole) but 50% (for other compounds) inhibits visible growth of yeasts. Next, as a control of microbial viability, 100 µL of the samples from each well without growth was inoculated on the MH or RPMI agar plates and incubated for 18 ± 2 h at 35 ± 1 °C and finally, the CFU was counted. The MBC/MFC was determined as the minimum concentration of compounds required to kill 99.9% the organisms.
(Dilution methods test growth across graded concentrations, often in twofold steps.)

A further assay relates to C. glabrata ATCC 2001. Description: Microbroth dilution assay. It is filed as cell-based, Candida glabrata. The settings on record: Nakaseomyces glabratus, ATCC2001. As for the experimental part: as §3
The subject of another assay is S. aureus MRSA 12673. Kind of assay: Microbroth dilution assay. The settings on record: Staphylococcus aureus. The format is cell-based.
The subject of another assay is S. aureus ATCC 6535. Kind of assay: Microbroth dilution assay. The format is cell-based. Conditions: Staphylococcus aureus, ATCC6535.
A further assay relates to E. coli ATCC 8739. Description: Microbroth dilution assay. The settings on record: Escherichia coli, ATCC8739. The format is cell-based. Here is the method: as §3
The subject of a further assay is HaCaT. Kind of assay: MTT assay, cytotoxic activity on non-cancerous keratinocytes. It is filed as cell-based. Conditions: Homo sapiens, 24 h, n = 12. Here is the method:
as §1, §2

[2] abbreviates: S. aureus MRSA 12673, read-out: MIC.
Setting [3] is: E. coli ATCC 8739, read-out: MIC.

As to `O=C1[O][Pt]2([NH][C@@H]3CCCC[C@H]3[NH]2)[O]C1=O` [Oxaliplatin, reference compound], the “IC50 ± SD” value in the assay on AGS worked out at 17.90 ± 1.20 µg/mL; in the assay with SKOV-3, 102.16 ± 9.26 µg/mL; in the assay on HeLa, 35.76 ± 1.72 µg/mL. In addition, the “IC50 (range over cell lines)” value in [1] was in the range of 35.76 to 102.16 µg/mL.
Regarding `CC(=O)N1CCN(c2ccc(OCC3COC(Cn4ccnc4)(c4ccc(Cl)cc4Cl)O3)cc2)CC1` (centres unmarked) [Ketoconazole, reference compound], in the assay with C. albicans ATCC 10231, the MFC was more than 128 µg/mL and the MIC is more than 128 µg/mL. In the assay on C. glabrata ATCC 2001, this compound gave an MFC of 128 µg/mL (≈ 241 µM) and an MIC of 64 µg/mL (≈ 120 µM).
Turning to `CC[C@]1(O)C[C@@H]2CN(CCc3c([nH]c4ccccc34)[C@@](C(=O)OC)(c3cc4c(cc3OC)N(C)[C@H]3[C@@](O)(C(=O)OC)[C@H](OC(C)=O)[C@]5(CC)C=CCN6CC[C@]43[C@@H]65)C2)C1` [Vinblastine sulfate, reference compound], the IC50 turned out to be 0.008 ± 0.0003 µg/mL in the assay on SKOV-3 and 0.005 ± 0.0004 µg/mL in the assay with HeLa.
As to `C(=C(\C1=NCCN1)n1ccc2ccccc21)/c1ccccc1` [Compound 2a, (Z)-1-[1-(4,5-dihydro-1H-imidazol-2-yl)-2-(phenyl)vinyl]-1H-indole], the results for the MBC against S. aureus MRSA 12673 (S. aureus MRSA 12673), against S. aureus ATCC 6535 and against E. coli ATCC 8739 (E. coli ATCC 8739) were more than 220 µg/mL, 220 µg/mL (≈ 766 µM) and 220 µg/mL (≈ 766 µM), respectively. In addition, the MIC in the assay with S. aureus MRSA 12673 (setting [2]) was 220 µg/mL (≈ 766 µM); against S. aureus ATCC 6535, 110 µg/mL (≈ 383 µM); in the assay with E. coli ATCC 8739 (setting [3]), 220 µg/mL (≈ 766 µM); in the assay on C. albicans ATCC 10231 it was more than 220 µg/mL; in the assay with C. glabrata ATCC 2001, more than 220 µg/mL. Further, the IC50 in the assay on AGS stood at 17.2 ± 0.68 µg/mL (≈ 60 µM); with SKOV-3 it was 9.81 ± 0.45 µg/mL (≈ 34.1 µM); in the assay with HeLa, 8.96 ± 0.33 µg/mL (≈ 31.2 µM); in the assay on HaCaT it was 11.7 ± 1.31 µg/mL (≈ 40.7 µM). Besides, the MFC in the assay with C. albicans ATCC 10231 and in the assay on C. glabrata ATCC 2001 was more than 220 µg/mL each time.
As for `O=[N+]([O-])c1ccc(/C=C(/C2=NCCN2)n2ccc3ccccc32)cc1` [Compound 2g, (Z)-1-[1-(4,5-dihydro-1H-imidazol-2-yl)-2-(4-nitrophenyl)vinyl]-1H-indole], the MBC was more than 220 µg/mL against S. aureus MRSA 12673 (S. aureus MRSA 12673), 110 µg/mL (≈ 331 µM) in the assay with S. aureus ATCC 6535 and more than 220 µg/mL against E. coli ATCC 8739 (E. coli ATCC 8739). The MIC with S. aureus MRSA 12673 (setting [2]) was 110 µg/mL (≈ 331 µM); against S. aureus ATCC 6535, 55 µg/mL (≈ 165 µM); in the assay on E. coli ATCC 8739 (setting [3]) it was 220 µg/mL (≈ 662 µM); with C. albicans ATCC 10231, more than 220 µg/mL; with C. glabrata ATCC 2001 it was more than 220 µg/mL. The IC50 with AGS was 10.14 ± 0.08 µg/mL (≈ 30.5 µM); with SKOV-3, 7.06 ± 0.62 µg/mL (≈ 21.2 µM); in the assay with HeLa it was 5.6 ± 0.57 µg/mL (≈ 16.8 µM); in [1] (Homo sapiens) it was 5.6 to 7.06 µg/mL (≈ 16.8 to 21.2 µM); with HaCaT, 9.15 ± 0.74 µg/mL (≈ 27.5 µM). Besides, the MFC with C. albicans ATCC 10231 and in the assay with C. glabrata ATCC 2001 was more than 220 µg/mL each time.
Take `CC1(C)S[C@@H]2[C@H](NC(=O)[C@H](N)c3ccccc3)C(=O)N2[C@H]1C(=O)O` [Ampicillin, reference compound]: the figures for the MIC against S. aureus MRSA 12673 (MRSA), against S. aureus ATCC 6535 and with E. coli ATCC 8739 were 512 µg/mL (≈ 1470 µM), 8 µg/mL (≈ 22.9 µM) and 128 µg/mL (≈ 366 µM), respectively. Also, the MBC in the assay on S. aureus MRSA 12673 (S. aureus MRSA 12673) came out at 512 µg/mL (≈ 1470 µM); against S. aureus ATCC 6535, 8 µg/mL (≈ 22.9 µM); in the assay on E. coli ATCC 8739 (E. coli ATCC 8739) it was 128 µg/mL (≈ 366 µM).
For `COc1ccc(/C=C(/C2=NCCN2)n2ccc3ccccc32)cc1` [Compound 2c, (Z)-1-[1-(4,5-dihydro-1H-imidazol-2-yl)-2-(4-methoxyphenyl)vinyl]-1H-indole], the MBC with S. aureus MRSA 12673 (S. aureus MRSA 12673) is more than 220 µg/mL; in the assay on S. aureus ATCC 6535, 110 µg/mL (≈ 347 µM); against E. coli ATCC 8739 (E. coli ATCC 8739), more than 220 µg/mL. The minimal inhibitory concentration (MIC) in the assay with S. aureus MRSA 12673 (setting [2]) is more than 220 µg/mL; in the assay on S. aureus ATCC 6535 it was 110 µg/mL (≈ 347 µM); in the assay with E. coli ATCC 8739 (setting [3]) it was 220 µg/mL (≈ 693 µM); in the assay with C. albicans ATCC 10231 it was more than 220 µg/mL; against C. glabrata ATCC 2001, more than 220 µg/mL. For the same compound, the IC50 worked out at 10.29 ± 0.08 µg/mL (≈ 32.4 µM) in the assay with AGS, 8.8 ± 0.46 µg/mL (≈ 27.7 µM) in the assay with SKOV-3, 7.86 ± 0.59 µg/mL (≈ 24.8 µM) in the assay on HeLa and 9.11 ± 1.58 µg/mL (≈ 28.7 µM) with HaCaT. The MFC with C. albicans ATCC 10231 and in the assay on C. glabrata ATCC 2001 was more than 220 µg/mL throughout.

What is called MFC is the lowest tested concentration that kills the fungus rather than only halting it. The MIC is the smallest concentration in the dilution series that meets the test's criterion for growth inhibition. Usually IC50 stands for the concentration that inhibits the measured activity by half. Higher therefore signals weaker potency. By MBC is commonly meant the lowest tested concentration that kills the bacteria rather than only halting them. Low values mean more potent killing, high ones less potent killing.
